Assay results published in ChEMBL document CHEMBL1201862, “PubChem BioAssay data set” (2004).
Where a name gives a salt, the structure may show the parent alone.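 Cultured in 96-well plates, cells were exposed to test compound for 48 hours across five concentrations. GI50 = concentration required for 50% inhibition of growth.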 Active and inactive are the calls of the source. No stated cut-off is given here; in the data, active = GI50 up to about 1.1 µM and inactive = higher.

Tests used:
Experiment in all cases: growth of human tumour cells (NCI), 48 h
786-0 = tested on: 786-0
CAKI-1 = tested on: CAKI-1
DMS-114 = tested on: DMS-114
HCC 2998 = tested on: HCC 2998
HOP-92 = tested on: HOP-92
LOX IMVI = tested on: LOX IMVI
NCI-H23 = tested on: NCI-H23
OVCAR-8 = tested on: OVCAR-8
RXF 393 = tested on: RXF 393
SF-539 = tested on: SF-539
SK-MEL-28 = tested on: SK-MEL-28
SN12C = tested on: SN12C
SNB-75 = tested on: SNB-75
SR = tested on: SR
IGROV-1 = tested on: IGROV-1
MCF7 = tested on: MCF7
MDA-MB-231 = tested on: MDA-MB-231
PC-3 = tested on: PC-3
SK-MEL-5 = tested on: SK-MEL-5
MDA-N = tested on: MDA-N

Compound | GI50 (786-0) | GI50 (CAKI-1) | GI50 (DMS-114) | GI50 (HCC 2998) | GI50 (HOP-92) | GI50 (LOX IMVI) | GI50 (NCI-H23) | GI50 (OVCAR-8) | GI50 (RXF 393) | GI50 (SF-539) | GI50 (SK-MEL-28) | GI50 (SN12C) | GI50 (SNB-75) | GI50 (SR) | GI50 (IGROV-1) | GI50 (MCF7) | GI50 (MDA-MB-231) | GI50 (PC-3) | GI50 (SK-MEL-5) | GI50 (MDA-N)
C(=C1/CCCCC([n+]2ccccc2)=N1)/c1ccccc1 | > 100 µM (inactive) | > 100 µM (inactive) | > 100 µM (inactive) | > 100 µM (inactive) | > 100 µM (inactive) | > 100 µM (inactive) | > 100 µM (inactive) | > 100 µM (inactive) | > 100 µM (inactive) | > 100 µM (inactive) | > 100 µM (inactive) | > 100 µM (inactive) | > 100 µM (inactive) | > 100 µM (inactive) |  |  |  |  |  | 
N=c1ccn2c(n1)O[C@H]1[C@H](O)[C@@H](CO)O[C@H]12 [ANCITABINE HYDROCHLORIDE] | 0.57 µM (active) | 1.66 µM (inactive) | 0.406 µM (active) | 33.7 µM (inactive) |  | 0.347 µM (active) | 0.406 µM (active) | 0.658 µM (active) | 79.8 µM (inactive) | 44.1 µM (inactive) |  | 1.91 µM (inactive) | 532 µM (inactive) | 0.183 µM (active) | 151 µM (inactive) | 0.522 µM (active) | 31.7 µM (inactive) | 2.79 µM (inactive) | 9.23 µM (inactive) | 
O=C(NCCCCCCNC(=O)n1cc(F)c(=O)[nH]c1=O)NCCCOCCOCCOCCOCCOCCOCCOCCOCCOCCOCCOCCOCCOCCOCCOCCOCCOCCOCCOCCOCCOCCCNC(=O)C(O)C(O)C(OC1OC(CO)C(O)C(O)C1O)C(O)CO (stereo unspecified) | 17.8 µM (inactive) | 70 µM (inactive) | > 100 µM (inactive) | 1.71 µM (inactive) | > 100 µM (inactive) | 18.9 µM (inactive) | 22.5 µM (inactive) | 43.4 µM (inactive) | 80.9 µM (inactive) | 1.67 µM (inactive) | 29.1 µM (inactive) | 56.5 µM (inactive) | 16.4 µM (inactive) | 16 µM (inactive) | 33.7 µM (inactive) | 6.07 µM (inactive) | > 71.4 µM (inactive) | 55.2 µM (inactive) | 20.5 µM (inactive) | 10 µM (inactive)
O=C1c2ccccc2C(=O)c2c(O)c(NCCNCCO)cc(O)c21 | 3.33 µM (inactive) | 2.08 µM (inactive) | 4.19 µM (inactive) | 3.78 µM (inactive) | 11.1 µM (inactive) | 3.73 µM (inactive) | 3.77 µM (inactive) | 3.01 µM (inactive) | 4.74 µM (inactive) | 4.93 µM (inactive) | 5.11 µM (inactive) | 3.99 µM (inactive) | 4.52 µM (inactive) | 2.2 µM (inactive) | 1.91 µM (inactive) |  |  |  | 3.44 µM (inactive) | 
CCOC(=O)C1CC/C(=C(/C#N)C(=O)OC)N1 (stereo unspecified) | > 100 µM (inactive) | > 100 µM (inactive) | > 100 µM (inactive) | > 100 µM (inactive) | > 100 µM (inactive) | > 100 µM (inactive) | > 100 µM (inactive) | > 100 µM (inactive) | > 100 µM (inactive) | > 100 µM (inactive) | > 100 µM (inactive) | > 100 µM (inactive) | > 100 µM (inactive) | > 100 µM (inactive) | > 100 µM (inactive) |  |  |  | > 100 µM (inactive) | 
C=CC[C@H](C[C@H](C[C@H](C[C@H](C[C@H](C[C@H](C[C@H](C[C@H](C[C@H](C[C@H](CCCCC)OC)OC)OC)OC)OC)OC)OC)OC)OC)OC | > 100 µM (inactive) | > 100 µM (inactive) | 52.6 µM (inactive) | > 100 µM (inactive) | > 100 µM (inactive) | > 100 µM (inactive) | 98.6 µM (inactive) | > 100 µM (inactive) | 66.4 µM (inactive) | > 100 µM (inactive) | > 100 µM (inactive) | > 100 µM (inactive) | 58.1 µM (inactive) | 36.6 µM (inactive) | > 100 µM (inactive) |  |  |  | 52.7 µM (inactive) | 
CNCc1cc(OC)ccc1-c1ccc(OC)c(OC)c1OC | > 100 µM (inactive) | > 100 µM (inactive) | 60.8 µM (inactive) | > 88.7 µM (inactive) | > 70.6 µM (inactive) | > 96.8 µM (inactive) | > 100 µM (inactive) | > 100 µM (inactive) | 69.7 µM (inactive) | > 100 µM (inactive) | > 100 µM (inactive) | > 100 µM (inactive) | 44.6 µM (inactive) | > 100 µM (inactive) | > 100 µM (inactive) |  |  |  | 64.3 µM (inactive) | 
Clc1ccc2nc(-c3ccccc3)nc(Cl)c2c1 | 33 µM (inactive) | 21.1 µM (inactive) | 39.3 µM (inactive) | 40.2 µM (inactive) | 25.4 µM (inactive) |  | 69.2 µM (inactive) | 37 µM (inactive) | 26.1 µM (inactive) | 46.6 µM (inactive) | 80.5 µM (inactive) | > 100 µM (inactive) | 22.1 µM (inactive) | > 100 µM (inactive) | > 100 µM (inactive) |  |  |  | > 100 µM (inactive) | 
COc1c(O)c2c(c3cc(C(=O)N4CCc5c4c(O)c(OC)c4[nH]c(C(=O)N6CC7CC78C6=CC(=O)c6[nH]cc(C)c68)cc54)[nH]c13)CCN2C(N)=O (stereo unspecified) [CC-1065] | 0.000381 µM (active) | 0.000975 µM (active) | 0.0025 µM (active) | 0.114 µM (active) | 0.00306 µM (active) | 0.000895 µM (active) | 0.000927 µM (active) | 0.000317 µM (active) | 0.188 µM (active) | 0.00366 µM (active) | 0.00184 µM (active) | 0.000685 µM (active) | 0.00356 µM (active) | 0.00914 µM (active) |  | 0.0577 µM (active) | 0.486 µM (active) | 0.164 µM (active) | 0.0126 µM (active) | 0.237 µM (active)
CCc1cccc(C(C)C)c1NC(=O)C(=O)C(Cc1nc2ccccc2nc1O)C(=O)OC (stereo unspecified) | > 100 µM (inactive) | > 100 µM (inactive) | 14.3 µM (inactive) | > 100 µM (inactive) | > 100 µM (inactive) | 45 µM (inactive) | > 100 µM (inactive) | > 100 µM (inactive) | > 100 µM (inactive) | > 100 µM (inactive) | > 100 µM (inactive) | > 100 µM (inactive) | 65.6 µM (inactive) | 38.5 µM (inactive) | > 100 µM (inactive) |  |  |  | > 100 µM (inactive) | 
CCS(CC)(CC)CC1CCCC2=CCC(P(=O)(c3ccccc3)c3ccccc3)CC21 (stereo unspecified) | 10.9 µM (inactive) | 10 µM (inactive) | 8.81 µM (inactive) | 9.25 µM (inactive) | 2.5 µM (inactive) | 14.7 µM (inactive) | 10.5 µM (inactive) | 11.4 µM (inactive) | 9.66 µM (inactive) | 13.3 µM (inactive) | 14.4 µM (inactive) | 11.9 µM (inactive) | 11 µM (inactive) | 6.27 µM (inactive) | 9.57 µM (inactive) |  |  |  | 13.2 µM (inactive) | 
C1OC1C1CO1 (stereo unspecified) | 24.2 µM (inactive) | > 100 µM (inactive) | 10.4 µM (inactive) | 96.4 µM (inactive) | > 100 µM (inactive) | 21.1 µM (inactive) | 18.1 µM (inactive) | > 100 µM (inactive) | 48.4 µM (inactive) | 59.8 µM (inactive) | 51.8 µM (inactive) | 93.1 µM (inactive) | 14.6 µM (inactive) | 3.88 µM (inactive) | > 100 µM (inactive) |  |  |  | 45.2 µM (inactive) | 
SCc1ccc(-c2ccc(CS)cc2)cc1 | 23.2 µM (inactive) | 4.42 µM (inactive) | 12.5 µM (inactive) | 15.6 µM (inactive) | 17.9 µM (inactive) | 4 µM (inactive) | 14.4 µM (inactive) | 21.3 µM (inactive) | 16.8 µM (inactive) | 18 µM (inactive) | 9.55 µM (inactive) | 26.3 µM (inactive) | 10.7 µM (inactive) | 2.42 µM (inactive) | 13.5 µM (inactive) | 5.32 µM (inactive) | 11.2 µM (inactive) | 17.4 µM (inactive) | 15.6 µM (inactive) | 
